Among the data in patent US20240245658A1, “TAAR1 AND SEROTONIN MODULATORS, AND PHARMACEUTICAL COMPOSITIONS, AND METHODS OF USE THEREOF” (Sunovion Pharmaceuticals Inc., priority 2021, published 2024) are EC50 and IC50 values, retold here.

Read-outs that look alike come from different tables or passages of the source.

What all share (assay type): cell-based
The target in test [1] is T1, human TAAR1 receptors (Homo sapiens, UniProt Q96RJ0).
T1 construct: host or cells: CHO-K1
T1 sequence (Q96RJ0 1-339): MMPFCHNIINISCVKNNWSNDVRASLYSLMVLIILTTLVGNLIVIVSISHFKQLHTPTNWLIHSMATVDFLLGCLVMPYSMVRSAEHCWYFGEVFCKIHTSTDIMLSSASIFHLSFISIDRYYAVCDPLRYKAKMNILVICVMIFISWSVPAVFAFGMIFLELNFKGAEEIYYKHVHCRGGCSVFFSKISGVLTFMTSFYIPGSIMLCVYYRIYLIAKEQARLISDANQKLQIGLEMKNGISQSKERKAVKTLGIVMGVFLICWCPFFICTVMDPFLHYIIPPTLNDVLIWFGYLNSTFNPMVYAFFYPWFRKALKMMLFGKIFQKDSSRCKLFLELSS
Description: TAAR1 Agonism Assay: cAMP HTRF assay for Gs coupled receptor TAAR1 (Euroscreen FAST-0987C). The settings on record: CHO-K1 cells expressing human TAAR1, cAMP HTRF. The method in brief:
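cAMP accumulation detected by HTRF fluorescence ratio, reagents added in lysis buffer and incubated 1 h at about room temperature. Beforehand, cells (about 3,000 per well) sat with test compound at ten concentrations from 0.3 to 10,000 nM in duplicate for roughly 30 min at about room temperature; tyramine dose-response run alongside.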
(In general: Time-resolved FRET reads energy transfer from a long-lived donor to a nearby acceptor.)

Test [2] concerns the target T2, human 5-HT7 receptor (Homo sapiens, UniProt P34969).
T2 construct: host or cells: CHO-K1
Description: 5HT7 Antagonism Assay (Euroscreen FAST-0499C), cAMP HTRF. The settings on record: CHO-K1 cells expressing human 5-HT7, reference agonist at EC80, cAMP HTRF. The essentials: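 CHO-K1 cells expressing human 5-HT7, 3000 per well in Krebs-Ringer HEPES with 1 mM IBMX, were exposed for 30 minutes at room temperature to compound plus reference agonist at its EC80. cAMP was read by HTRF after 1 hour; compounds were tested in duplicate from 0.3 to 10,000 nM.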

The target of test [3] is T3, human 5-HT2A receptor (Homo sapiens, UniProt P28223).
T3 construct: host or cells: CHO-K1
Description: 5HT2A Antagonism Assay (Euroscreen FAST-05051), IP-One HTRF. Particulars: CHO-K1 cells expressing human 5-HT2A, reference agonist at EC80, IP-One. The method in brief: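 CHO-K1 cells expressing receptor, 20,000/well, co-incubated with test compound and reference agonist at its EC80 for 60 min at 37 °C. IP1 accumulation read by HTRF after ~1 h detection at room temperature. Compounds tested in duplicate at 0.3–10,000 nM.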

T3 sequence (P28223 whole entry): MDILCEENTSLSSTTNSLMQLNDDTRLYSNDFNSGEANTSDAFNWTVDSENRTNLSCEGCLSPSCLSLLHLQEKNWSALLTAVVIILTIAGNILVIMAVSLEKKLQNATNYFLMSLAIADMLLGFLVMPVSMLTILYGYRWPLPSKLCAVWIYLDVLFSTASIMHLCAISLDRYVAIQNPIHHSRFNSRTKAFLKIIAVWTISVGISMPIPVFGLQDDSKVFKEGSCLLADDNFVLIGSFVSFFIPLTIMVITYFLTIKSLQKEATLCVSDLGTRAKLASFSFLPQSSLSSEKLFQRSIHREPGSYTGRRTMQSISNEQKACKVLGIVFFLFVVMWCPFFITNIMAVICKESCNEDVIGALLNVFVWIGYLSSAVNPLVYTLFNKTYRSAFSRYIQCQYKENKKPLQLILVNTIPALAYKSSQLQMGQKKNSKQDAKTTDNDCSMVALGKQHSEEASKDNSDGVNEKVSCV
T2 sequence (P34969 whole entry): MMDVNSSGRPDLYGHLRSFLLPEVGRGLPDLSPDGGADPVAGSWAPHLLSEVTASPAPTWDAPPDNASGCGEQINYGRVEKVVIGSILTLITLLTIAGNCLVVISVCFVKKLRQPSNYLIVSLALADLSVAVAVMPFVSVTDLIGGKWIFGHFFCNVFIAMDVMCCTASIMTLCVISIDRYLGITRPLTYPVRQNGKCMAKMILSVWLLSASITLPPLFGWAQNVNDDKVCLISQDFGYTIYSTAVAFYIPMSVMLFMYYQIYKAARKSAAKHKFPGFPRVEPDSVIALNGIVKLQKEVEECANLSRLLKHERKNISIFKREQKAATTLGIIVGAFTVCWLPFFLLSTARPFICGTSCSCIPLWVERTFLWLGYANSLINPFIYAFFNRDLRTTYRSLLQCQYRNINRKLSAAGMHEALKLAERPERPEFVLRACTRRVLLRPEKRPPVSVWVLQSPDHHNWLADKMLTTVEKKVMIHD

As a reminder, the EC50 is the midpoint of the concentration-response curve. A lower EC50 goes with greater potency. As a reminder, the IC50 is the concentration that inhibits the measured activity by half. In the case of `C[C@@H]1c2ccccc2Oc2cccnc2[C@@H]1CN` (stereo in doubt) [Compound 112, ((10S*,11S*)-10-methyl-10,11-dihydrobenzo[6,7]oxepino[3,2-b]pyridin-11-yl)methanamine], the EC50 in test [1] was < 1 µM. Moreover, the IC50 in test [2] was ≥ 10 µM; in test [3] (5-HT2A (IC50)), > 10 µM.
On to `C[C@@H]1c2ccccc2Oc2cccnc2[C@H]1CN` (stereo in doubt) [Compound 114, ((10S*,11R*)-10-methyl-10,11-dihydrobenzo[6,7]oxepino[3,2-b]pyridin-11-yl)methanamine], for which, in test [1], the EC50 was < 1 µM. The values for the IC50 in test [2] and in test [3] (5-HT2A (IC50)) were ≥ 10 µM and 1 to 10 µM, respectively.
Turning to `C[C@H]1c2ccccc2Oc2cccnc2[C@@H]1CN` (stereo in doubt) [Compound 115, ((10R*,11S*)-10-methyl-10,11-dihydrobenzo[6,7]oxepino[3,2-b]pyridin-11-yl)methanamine], the EC50 in test [1] is 1 to 10 µM. Besides, the IC50 was ≥ 10 µM in test [2] and > 10 µM in test [3] (5-HT2A (IC50)).
On to `CNC[C@H]1c2ncccc2Oc2ccccc2[C@H]1C` (stereo in doubt) [Compound 116, ((10S*,11S*)-10-methyl-10,11-dihydrobenzo[6,7]oxepino[3,2-b]pyridin-11-yl)-N-methylmethanamine], for which, in test [1], the EC50 was < 1 µM. Further, the IC50 in test [2] was ≥ 10 µM; in test [3] (5-HT2A (IC50)), 1 to 10 µM.
Take `CNC[C@@H]1c2ncccc2Oc2ccccc2[C@H]1C` (stereo in doubt) [Compound 118, ((10S*,11R*)-10-methyl-10,11-dihydrobenzo[6,7]oxepino[3,2-b]pyridin-11-yl)-N-methylmethanamine]: the EC50 in test [1] is < 1 µM. The IC50 in test [2] is ≥ 10 µM; in test [3] (5-HT2A (IC50)) it was 1 to 10 µM.
Turning to `CNC[C@H]1c2ncccc2Oc2ccccc2[C@@H]1C` (stereo in doubt) [Compound 119, ((10R*,11S*)-10-methyl-10,11-dihydrobenzo[6,7]oxepino[3,2-b]pyridin-11-yl)-N-methylmethanamine], in test [1], the EC50 is 1 to 10 µM. The IC50 was ≥ 10 µM in test [2] and 1 to 10 µM in test [3] (5-HT2A (IC50)).
For `NCC1Oc2ccccc2Cc2ccccc21` (stereo not drawn) [Compound 77, (6,11-dihydrodibenzo[b,e]oxepin-6-yl)methanamine], in test [1], the EC50 is < 1 µM. Moreover, the IC50 was ≥ 10 µM in test [2] and 1 to 10 µM in test [3] (read-out: 5-HT2A (IC50)).
